Reference: the supplement of paper PMC10307832

Legend:
Experiment in all cases: relative viability (nuclei count vs DMSO), 5 days (fraction); higher = more cells survive
[1] = compound: O=C(Nc1cccc(C(F)(F)F)c1)Nc1cc(S(=O)(=O)NC2CC2)ccc1-c1ccsc1 [AGI-6780] + Cc1nc(NC(=O)N2CCC[C@H]2C(N)=O)sc1-c1ccnc(C(C)(C)C(F)(F)F)c1 [Alpelisib] (partner 2 µM)
Outline: (§1)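 Lung cancer cell lines in 1536-well plates were dosed by pin tool the day after seeding, either with one drug alone or with a fixed anchor-drug dose plus five library-drug doses (not always all listed) in √10 steps. After 5 days, cells were fixed and their nuclei stained in one step (final 0.05% Triton X-100, 1% formaldehyde, 1 ug/ml Hoechst), then counted on 4× images. Relative viability is the nuclei count in treated wells divided by that in vehicle wells. Values are medians of duplicate plates.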

[2] = compound: O=C(Nc1cccc(C(F)(F)F)c1)Nc1cc(S(=O)(=O)NC2CC2)ccc1-c1ccsc1 [AGI-6780] + N=C(N)NC(=N)NCCc1ccccc1 [Phenformin] (partner 250 µM)
Outline: as §1

[3] = compound: O=C(Nc1cccc(C(F)(F)F)c1)Nc1cc(S(=O)(=O)NC2CC2)ccc1-c1ccsc1 [AGI-6780] + NC(=O)Nc1cc(-c2cccc(F)c2)sc1C(=O)N[C@H]1CCCNC1 [AZD7762] (partner 0.2 µM)
Outline: as §1

[4] = compound: O=C(Nc1cccc(C(F)(F)F)c1)Nc1cc(S(=O)(=O)NC2CC2)ccc1-c1ccsc1 [AGI-6780] + CS(=O)(=O)N1CCN(Cc2cc3nc(-c4cccc5[nH]ncc45)nc(N4CCOCC4)c3s2)CC1 [Pictilisib] (partner 1 µM)
Outline: as §1

Cell Line	relative viability ([1]; first compound 0.08 µM)	relative viability ([1]; first compound 0.253 µM)	relative viability ([1]; first compound 0.8 µM)	relative viability ([1]; first compound 2.53 µM)	relative viability ([1]; first compound 8 µM)	relative viability ([2]; first compound 0.08 µM)	relative viability ([2]; first compound 0.253 µM)	relative viability ([2]; first compound 0.8 µM)	relative viability ([2]; first compound 2.53 µM)	relative viability ([2]; first compound 8 µM)	relative viability ([3]; first compound 0.08 µM)	relative viability ([3]; first compound 0.253 µM)	relative viability ([3]; first compound 0.8 µM)	relative viability ([3]; first compound 2.53 µM)	relative viability ([3]; first compound 8 µM)	relative viability ([4]; first compound 0.08 µM)	relative viability ([4]; first compound 0.253 µM)	relative viability ([4]; first compound 0.8 µM)	relative viability ([4]; first compound 2.53 µM)	relative viability ([4]; first compound 8 µM)
HCC-366	0.589	0.442	0.441	0.278	0.417	0.615	0.667	0.589	0.321	0.682	0.232	0.293	0.34	0.35	0.193	0.185	0.111	0.108	0.15	0.175
HCC-827	0.937	0.971	0.986	0.952	0.955	0.423	0.39	0.413	0.395	0.376	0.223	0.269	0.356	0.236	0.187	0.896	0.916	1.03	0.856	0.823
HOP-62	0.923	0.985	0.986	1.14	1.27	0.684	0.663	0.876	0.689	0.763	0.659	0.592	0.826	0.846	0.82	0.815	0.928	0.88	0.651	0.786
LC-2-ad	0.945	0.983	0.897	0.862	0.826	0.623	0.59	0.605	0.54	0.505	0.895	0.885	0.921	0.877	0.859	0.598	0.726	0.532	0.381	0.456
LCLC-97TM1	0.211	0.246	0.393		0.351	0.402	0.409	0.419	0.439	0.436	0.276	0.279	0.445	0.31	0.303	0.195	0.218	0.257		0.245
LCLC-103H	0.916	1.01	0.906	0.983	0.78	0.311	0.305	0.338	0.33	0.375	0.716	0.812	0.712	0.647	0.792	0.582	0.681	0.516	0.457	0.663
LK-2	1.27	1.1	1.29		0.986	0.598	0.556	0.648		0.495	0.374	0.412	0.63		0.501	0.413	0.461	0.601		0.505
NCI-H520	1.05	1.08	0.959	0.732	0.922	0.733	0.699	0.743	0.431	0.622						0.278	0.315	0.332	0.257	0.29
NCI-H661	0.483	0.713	0.791	0.51	0.59	0.284	0.344	0.27	0.261	0.252						0.378	0.482	0.45	0.317	0.381
